Source: PMC11671014 (PLOS Pathogens, 2024)
Values joined by “and” are separate entries in the source; they are usually repeats but may differ in a detail not shown here. Identical values can stand only once.

How the values were obtained:
[1] = tested on: HepG2 cells; assay: HepG2 72-h viability, CellTiter-Glo; type: cell-based; conditions: Homo sapiens, 72 h exposure
Procedure: The HepG2 (Human hepatocyte carcinoma) cell line was procured from ATCC (American Type Culture Collection, Manassas, USA; HB-8065) and viability assessed using CellTiter-Glo luminescent cell viability assay reagents (Promega). For the assay, 2,000 cells/well were plated in 384-well plates 24 h prior to the experiment and incubated at 37°C in a CO2 incubator. The medium was removed; and cells were treated with fresh medium containing either vehicle (0.5% DMSO) or serially diluted compounds or doxorubicin (1.3 nM to 25 μM) in a final volume of 50 μL/well and further incubated for 72 h at 37°C in a CO2 incubator. […] Following incubation, 25 μL of medium was discarded and 25 μl of CellTiter-Glo reagent was added to each well and the plate was kept on a plate shaker for 15 min at 25°C with shaking at 300 rpm. Luminescence signals were measured in a PHERAstar FSX reader (BMG LABTECH).

[2] = target: T1, SAE (SUMO-activating enzyme) (Homo sapiens, UniProt Q9UBT2); assay: SAE E1-E2 transthiolation HTRF assay; type: biochemical
T1 sequence (Q9UBT2 1-640): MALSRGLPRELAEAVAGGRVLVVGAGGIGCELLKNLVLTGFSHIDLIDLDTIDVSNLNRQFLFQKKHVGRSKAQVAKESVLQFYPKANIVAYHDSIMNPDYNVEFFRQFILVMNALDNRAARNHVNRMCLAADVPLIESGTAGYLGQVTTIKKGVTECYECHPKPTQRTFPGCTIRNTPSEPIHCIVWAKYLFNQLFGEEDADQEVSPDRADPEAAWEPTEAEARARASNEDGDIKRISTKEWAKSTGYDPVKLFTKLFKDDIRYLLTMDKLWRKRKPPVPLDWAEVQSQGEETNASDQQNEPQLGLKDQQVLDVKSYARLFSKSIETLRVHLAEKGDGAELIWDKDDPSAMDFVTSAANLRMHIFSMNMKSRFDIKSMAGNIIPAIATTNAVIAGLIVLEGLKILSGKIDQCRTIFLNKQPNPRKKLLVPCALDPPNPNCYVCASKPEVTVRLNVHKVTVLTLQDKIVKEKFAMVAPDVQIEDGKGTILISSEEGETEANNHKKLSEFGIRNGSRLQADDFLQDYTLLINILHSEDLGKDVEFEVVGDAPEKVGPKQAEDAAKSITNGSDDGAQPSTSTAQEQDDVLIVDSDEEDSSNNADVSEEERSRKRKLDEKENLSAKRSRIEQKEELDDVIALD
T1 sequence (Q9UBE0 1-346 partner): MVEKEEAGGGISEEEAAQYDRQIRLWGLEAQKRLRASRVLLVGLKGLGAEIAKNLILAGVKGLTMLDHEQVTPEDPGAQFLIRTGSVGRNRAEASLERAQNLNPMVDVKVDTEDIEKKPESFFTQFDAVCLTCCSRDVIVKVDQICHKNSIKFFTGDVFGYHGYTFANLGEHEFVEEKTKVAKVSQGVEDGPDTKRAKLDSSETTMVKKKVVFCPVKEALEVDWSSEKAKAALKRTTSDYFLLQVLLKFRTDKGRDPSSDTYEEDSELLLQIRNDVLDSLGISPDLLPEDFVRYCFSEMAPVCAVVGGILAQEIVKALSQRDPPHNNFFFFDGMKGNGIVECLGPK
Excerpt: An Homogeneous Time-Resolved Fluorescence (HTRF) enzyme assay was employed to evaluate compound activity against ATG7 as previously described. In this assay, a Flag-tagged ATG8 homolog (GABA type A receptor-associated protein; GABARAP) is activated by ATG7 and then transthiolated to a GST-tagged E2 (ATG3). The product of the enzyme reaction, Flag-GABARAP-ATG3-GST, is quantified by measuring FRET between Europium-Cryptate labelled monoclonal anti-Flag M2 (FLAG M2-Eu cryptate; Revvity, Cat# 61FG2KLB) and […] (Anti-GST IgG conjugated to SureLight-Allophycocyanin) (Revvity, Cat# AD0059G)). The activation and transthiolation of ubiquitin by UAE, activation and transthiolation of NEDD8 by NAE and activation and transthiolation of SUMO by SAE were all assayed in a similar fashion with appropriately tagged ubiquitin-like proteins and E2 conjugating enzymes as described.

[3] = target: PfTyrRS (Plasmodium falciparum, UniProt Q8IAR7); assay: ATP consumption by PfTyrRS (Kinase Glo); type: biochemical; conditions: PfTyrRS 25 nM, ATP 10 μM, tyrosine 200 μM, cognate tRNA^Tyr 4.8 μM, 37°C 1 h; read-out: Inhibition of PfTyrRS (Kinase Glo) IC50
Procedure: Consumption of ATP was measured using a luciferase-based assay as per the manufacturer’s instructions (Kinase-Glo Luminescent Kinase Assay, Promega).

[4] = tested on: P. falciparum (3D7, ring stage) cultures; assay: P. falciparum 3D7 72-h growth inhibition, lactate dehydrogenase (PfLDH) assay; type: cell-based; conditions: Plasmodium falciparum, 72 h exposure
Procedure: Routine analyses of antimalarial activity against P. falciparum 3D7 was tested by TCGLS (Kolkata, India) using the lactate dehydrogenase (PfLDH) growth inhibition assay as previously described. […] P. falciparum strain (3D7) was obtained from BEI Resources.

PfTyrRS, sequence (Q8IAR7 entry or part of it): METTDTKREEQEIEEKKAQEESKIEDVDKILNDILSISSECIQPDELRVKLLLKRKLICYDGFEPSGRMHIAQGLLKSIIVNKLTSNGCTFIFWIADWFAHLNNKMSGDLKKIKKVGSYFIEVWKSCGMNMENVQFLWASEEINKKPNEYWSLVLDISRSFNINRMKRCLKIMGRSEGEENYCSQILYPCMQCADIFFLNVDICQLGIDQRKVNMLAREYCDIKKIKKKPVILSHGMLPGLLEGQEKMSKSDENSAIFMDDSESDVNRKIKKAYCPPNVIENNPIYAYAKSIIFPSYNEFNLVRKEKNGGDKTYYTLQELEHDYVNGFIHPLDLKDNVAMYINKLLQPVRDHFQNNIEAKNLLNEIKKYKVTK

| Compound | IC50 [1] | IC50 [2] | IC50 [3] | IC50 [4] | activity against SAE (in words) [2] |
| --- | --- | --- | --- | --- | --- |
| Nc1ncnc2c1c(C(F)(F)F)nn2[C@@H]1O[C@H](COS(N)(=O)=O)[C@@H](O)[C@H]1O [ML107] | 2.52 µM | 78.5 ± 6.2 µM | 24 ± 5 µM | 0.0042 ± 0.0005 µM |  |
| Nc1ncnc2c1c(Oc1ccccc1)nn2[C@@H]1O[C@H](COS(N)(=O)=O)[C@@H](O)[C@H]1O [ML470] | > 50 µM | > 100 µM | 41 ± 23 µM | 0.0448 ± 0.0082 µM |  |
| CC(C)c1nn([C@@H]2O[C@H](COS(N)(=O)=O)[C@@H](O)[C@H]2O)c2ncnc(N)c12 [ML471, ((2R,3S,4R,5R)-5-(4-amino-3-isopropyl-1H-pyrazolo[3,4-d]pyrimidin-1-yl)-3,4-dihydroxytetrahydrofuran-2-yl)methyl sulfamate] | > 50 µM | > 100 µM | 1.4 ± 0.2 µM | 0.0015 ± 0.0002 µM | no or very little activity |
| CCOc1nn([C@@H]2O[C@H](COS(N)(=O)=O)[C@@H](O)[C@H]2O)c2ncnc(N)c12 [ML676] | 22.4 µM | 31.4 ± 5.7 µM |  | 0.0028 ± 0.0002 µM |  |
| CCc1nn([C@@H]2O[C@H](COS(N)(=O)=O)[C@@H](O)[C@H]2O)c2ncnc(N)c12 [ML681] | 7.53 µM | 22.4 ± 3.1 µM | 23 ± 8 µM | 0.0034 ± 0.0001 µM |  |
| CC(C)Oc1nn([C@@H]2O[C@H](COS(N)(=O)=O)[C@@H](O)[C@H]2O)c2ncnc(N)c12 [ML723] | > 50 µM | > 100 µM | 14 ± 5 µM | 0.0025 ± 0.0006 µM |  |
| Nc1ncnc2c1c(OC(F)F)nn2[C@@H]1O[C@H](COS(N)(=O)=O)[C@@H](O)[C@H]1O [ML901] | 4.65 µM | > 100 µM | 13.4 µM and 13 µM | 0.0028 ± 0.0002 µM | no activity |
